Test results: ChEMBL document CHEMBL6071177, “Medium-Ring Keto Bislactams with Antischistosomal Activity” (J Med Chem, 2024)
In brackets after ≈: the same amount, converted by molar mass.

Legend:
[1] = Lipophilicity, logD of compound at pH 7.4 by HPLC analysis; type: physicochemical; settings: buffer
[2] = Solubility of compound in phosphate buffer at pH 6.5 by nephelometry; type: physicochemical
[3] = Solubility of compound in 0.01 M HCl at pH 2.0 by nephelometry; type: physicochemical
Schistosoma mansoni [4] = experiment: Anti-schistosomal activity against newly transformed Schistosoma mansoni assessed as parasite viability at 10 uM measured after 3 days relative to control; type: functional; settings: time 3 day
Schistosoma mansoni [5] = experiment: Anti-schistosomal activity against adult Schistosoma mansoni assessed as parasite viability at 10 uM measured after 3 days relative to control; type: functional; settings: time 3 day
[6] = Cytotoxicity against rat L6 cells; type: toxicity, cell-based
[7] = Intrinsic clearance in mouse liver microsomes
[8] = Intrinsic clearance in human liver microsomes
[9] = Cmax in Swiss mouse at 100 mg/kg, po measured upto 48 hrs by LC-MS analysis; type: ADME, organism-based; settings: in vivo
[10] = AUC (0 to 24 hrs) in Swiss mouse at 100 mg/kg, po measured upto 48 hrs by LC-MS analysis; type: ADME, organism-based; settings: in vivo
[11] = Half life in Swiss mouse at 100 mg/kg, po measured upto 48 hrs by LC-MS analysis; type: ADME, organism-based; settings: in vivo
Schistosoma mansoni [12] = experiment: Ex vivo anti-schistosomal activity against adult Schistosoma mansoni assessed as inhibition of parasite viability measured after 3 days; type: functional, organism-based; settings: 72 h

SMILES	logD [1]	solubility kinetic [2] [µM]	solubility kinetic [3] [µM]	Activity (Schistosoma mansoni [4]) [%]	Activity (Schistosoma mansoni [5]) [%]	IC50 [6] [µM]	CLH [7] [µL/min/mg]	CLH [8] [µL/min/mg]	Cmax [9] [ng/mL]	AUC [10] [ng·h/mL]	t1/2 [11] [h]	IC50 (Schistosoma mansoni [12]) [µM]
O=C1CCN2C(=O)c3ccccc3C2C(=O)Nc2cc(F)ccc21 (configuration not stated)	1.4	160 (≈ 51.9 µg/mL)	160 (≈ 51.9 µg/mL)	15	39	> 300	–	–	–	–	–	–
CC12C(=O)Nc3ccccc3C(=O)CCN1C(=O)c1ccccc12 (configuration not stated)	1.7	160 (≈ 51.3 µg/mL)	160 (≈ 51.3 µg/mL)	25	35	> 300	136	34	–	–	–	–
O=C1CCN2C(C(=O)Nc3ccccc31)c1ccccc1S2(=O)=O (configuration not stated)	1.7	160 (≈ 54.8 µg/mL)	80 (≈ 27.4 µg/mL)	27	44	130	–	–	–	–	–	–
O=C1CCN2C(=O)c3ccccc3C2C(=O)Nc2ccc(F)cc21 (configuration not stated)	1.4	> 320	160 (≈ 51.9 µg/mL)	30	40	> 310	258	45.4	–	–	–	–
O=C1CCn2c(nc3ccccc3c2=O)C(=O)Nc2ccccc21	1.8	> 320	> 320	31	20	52	38.2	21.7	–	–	–	–
CO/N=C1/CCN2C(=O)c3ccccc3C2C(=O)Nc2ccccc21 (configuration not stated)	1.6	> 320	> 320	33	41	> 300	80.3	13.2	–	–	–	–
O=C1CCN2C(=O)CCC2C(=O)Nc2ccccc21 (configuration not stated)	< 0	> 320	160 (≈ 41.3 µg/mL)	13	31	> 390	35	17	–	–	–	–
O=C1CCN2C(=O)c3ccccc3C2C(=O)Nc2ccc(Cl)cc21 (configuration not stated)	1.8	> 320	160 (≈ 54.5 µg/mL)	38	40	220	413	101	–	–	–	–
O=C1CCN2C(=O)c3cc4ccccc4cc3C2C(=O)Nc2ccccc21 (configuration not stated)	2.3	> 320	> 320	48	40	98	212	97.4	–	–	–	–
O=C1CCN2C(=O)c3cc(Cl)c(Cl)cc3C2C(=O)Nc2ccccc21 (configuration not stated)	2.4	160 (≈ 60 µg/mL)	80 (≈ 30 µg/mL)	31	40	190	–	–	–	–	–	–
O=C1c2ccccc2C23C(=O)Nc4ccccc4C2(O)CCN13 (configuration not stated)	0.9	40 (≈ 12.3 µg/mL)	40 (≈ 12.3 µg/mL)	18	48	> 330	< 7	< 7	–	–	–	–
O=C1CCN2C(=O)[C@H]3CCCC[C@H]3C2C(=O)Nc2ccccc21 (some centres not stated)	1.4	> 320	> 320	50	25	220	43.7	22.3	–	–	–	–
O=C1C[C@@H](CO)N2C(=O)c3ccccc3C2C(=O)Nc2ccccc21 (some centres not stated)	0.8	80 (≈ 26.9 µg/mL)	80 (≈ 26.9 µg/mL)	38	47	230	61.6	19.6	–	–	–	–
O=C1CCN2C(=O)c3ccccc3C2C(=O)Nc2cc(F)cc(F)c21 (configuration not stated)	1.7	> 320	160 (≈ 54.8 µg/mL)	23	40	200	35.6	21.5	–	–	–	–
COc1ccc2c(c1)C(=O)CCN1C(=O)c3ccccc3C1C(=O)N2 (configuration not stated)	1.5	> 320	> 320	50	42	130	280	57.1	–	–	–	–
O=C1CCN2C(=O)c3c(F)c(F)c(F)c(F)c3C2C(=O)Nc2ccccc21 (configuration not stated)	2	160 (≈ 60.5 µg/mL)	160 (≈ 60.5 µg/mL)	36	30	98	–	–	–	–	–	–
O=C1Nc2ccccc2C2(O)CCN3C12c1ccccc1S3(=O)=O (configuration not stated)	1	> 160	80 (≈ 27.4 µg/mL)	47	61	> 290	11.6	4.6	–	–	–	–
COC1CCN2C(=O)c3ccccc3C2C(=O)Nc2ccccc21 (configuration not stated)	1.4	160 (≈ 51.6 µg/mL)	80 (≈ 25.8 µg/mL)	25	31	> 310	90.5	23.2	–	–	–	–
O=c1c2c([nH]c3ccccc13)C1c3ccccc3S(=O)(=O)N1C2 (configuration not stated)	2	40 (≈ 13 µg/mL)	40 (≈ 13 µg/mL)	22	47	200	45.8	11	–	–	–	–
O=C1CCN2C(=O)c3ccccc3C2C(=O)Nc2ccccc21 (configuration not stated)	1.2	> 320	160 (≈ 49 µg/mL)	51	61	> 330	84	27	189	810	4.4	2.5
COC(=O)[C@@H]1CC(=O)c2ccccc2NC(=O)C2c3ccccc3C(=O)N21 (some centres not stated)	1.7	160 (≈ 58.3 µg/mL)	80 (≈ 29.1 µg/mL)	50	27	> 270	102	55.5	–	–	–	–
O=C1CCN2C(=O)c3cc(F)c(F)cc3C2C(=O)Nc2ccccc21 (configuration not stated)	1.7	160 (≈ 54.8 µg/mL)	> 320	37	34	> 290	–	–	–	–	–	–
CCOC(=O)c1ccc2c(c1)C(=O)CCN1C(=O)c3ccccc3C1C(=O)N2 (configuration not stated)	2	40 (≈ 15.1 µg/mL)	40 (≈ 15.1 µg/mL)	21	38	> 260	118	55.6	–	–	–	–
COc1cc2c(cc1OC)C1C(=O)Nc3ccccc3C(=O)CCN1C2=O (configuration not stated)	1.2	> 320	160 (≈ 58.6 µg/mL)	23	38	150	37.4	20.7	–	–	–	–
CN1C(=O)C2c3ccccc3C(=O)N2CCC(=O)c2ccccc21 (configuration not stated)	1.9	> 320	> 320	23	39	> 300	174	71	–	–	–	–
O=C1Nc2ccccc2CCCN2C(=O)c3ccccc3C12 (configuration not stated)	1.5	> 320	160 (≈ 46.8 µg/mL)	48	31	> 340	100	35.7	–	–	–	–
O=C(C1CCCCC1)N1CC(=O)N2CCc3ccccc3C2C1 (configuration not stated) [PRAZIQUANTEL]	3	> 320	> 320	78	100	–	–	–	–	–	–	–
